Assay results published in patent US10759740B2, “Antibacterial agents” (Rutgers, The State University of New Jersey, priority 2016, dated 2020).
Values after ≈ are worked out from the molar mass of the structure shown.

What was measured:
[1] = test system: G. vaginalis pre-formed biofilms; assay: MBC-B against pre-formed biofilms (Example 2); format: cell-based; conditions: ≥3 log reduction in viable cells
Description: The minimum biofilm bactericidal concentrations (MBC-Bs) of the cationic amphiphiles against pre-formed biofilms of L. monocytogenes and G. vaginalis were identified. The biofilms of the two targeted microorganisms were grown in 96-well plates according to established methodology for Gram-positive and Gram-variable bacteria (Tabak et al., FEMS microbiology letters. 2009; 301(1):69-76). To identify the reduction in the number of biofilm-associated viable cells treated with different concentrations of cationic amphiphiles, the spot plate method was used (Turovskiy et al., Infectious diseases in obstetrics and gynecology. 2012; 2012:284762, 9 pages). In brief, biofilms were washed, disrupted, diluted 10^1-10^8 times with fresh medium and the samples plated on suitable solid medium.

[2] = test system: planktonic cells of G. vaginalis; assay: Checkerboard assay, planktonic cells; format: cell-based, Gardnerella vaginalis
Description: To evaluate the potential effectiveness of the antimicrobial combinations on planktonic and biofilm cells, a checkerboard assay was performed following Algburi et al. (Algburi et al., 2015. Path Dis 73(5)) with minor modifications. For planktonic cells, the overnight grown G. vaginalis was diluted to approximately 10^6 CFU/ml. Each antimicrobial agent was diluted twofold with sBHI broth into two separate 96-well non-tissue culture microplates. From each dilution of antimicrobial B, 50 μl was added horizontally over 50 μl of antimicrobial A. Then, 100 μl of bacterial suspension (10^6 CFU/ml) was separately added to the predetermined concentration of antimicrobial combinations. The MIC of each combination was determined after 24 h of incubation.
(§1) Isobolograms were used to compare the MIC and MBC-B values of each antimicrobial alone with its MIC and MBC-B values in combination with other antimicrobials. The point on the axis (X) refers to MIC or MBC-B values of the first antimicrobial with the coordinates (0, x), and the point on the axis (Y) represents the MIC or MBC-B values of the second antimicrobial with the coordinates (y, 0) when they used alone. The two MIC or MBCs-B values are connected by a dashed line (Turovskiy Y, Chikindas M L. 2011 Probiotics Antimicrob Proteins 3:144-149). The MICs or MBCs-B of each antimicrobial combination are plotted as dots on the graph. Results are expressed according to the locations of these dots from the line that connects MICs or MBCs-B of the first and second antimicrobials. When MICs or MBCs-B values are located under the line, the two combining antimicrobials are synergized, but antagonized against the tested microorganism when these dots of interaction are above. An additive effect is observed when these dots are located on the line.

[3] = test system: biofilms of G. vaginalis; assay: Checkerboard assay, biofilm cells; format: cell-based, Gardnerella vaginalis
Description: For biofilm formation, the overnight culture of G. vaginalis was diluted to approximately 10^7 CFU/ml and 200 μl was transferred into a 96-well tissue culture microplate and incubated anaerobically at 37° C. for 24-36 h. Following biofilm formation and removal of non-adherent cells by washing the biofilm twice with BHIG, each antimicrobial was diluted twofold separately with BHIG broth into two 96-white deep-well microplates. From each dilution of antimicrobial B, 125 μL was added horizontally over 125 μL of antimicrobial A (see FIG. 1 of Algburi et al., 2015. Path Dis 73(5)). From each combination, 200 μL samples were added to the biofilm in sequence, and the microplate was incubated for 24 h at 37° C. under anaerobic conditions. The spot plate method was utilized for counting the number of CFU/ml and evaluating the bactericidal activity (MBC-B) of each antimicrobial combination against biofilm-associated G. vaginalis. Isobolograms were used to analyze the nature of antimicrobial interaction, which is classified as synergistic, antagonistic or additive activity against the planktonic and biofilm cells.
as §1

[4] = test system: vaginal lactobacilli; assay: MIC against vaginal lactobacilli; format: cell-based, Lactobacillus species
Description: According to Clinical and Laboratory Standards Institute (CLSI 2010), the MIC is defined as the lowest concentration of antimicrobial compound producing no visible growth or complete inhibition of bacterial growth during 24 h. To determine MIC values, the broth microdilution assay was performed according to Algburi et al. (Algburi et al., 2015. Path Dis 73(5)) with minor modifications. Briefly, the overnight-grown cells were diluted with their suitable culture medium to approach ˜10^6 CFU/ml. The number of bacterial cells was identified using spot plate method (Turovskiy et al., 2012. Infect Dis Obstet Gynecol 2012:284762). The CAms were serially diluted twofold with sBHI into a non-tissue culture 96-well microplate plate (Falcon, Corning Incorporated, Corning, N.Y., USA) resulting in a final volume of 100 μl for each well. Aliquots of 100 μl of the diluted cell suspension (˜10^6 CFU/ml) were added to each well of a microplate that was treated with different concentrations of CAms. To avoid culture medium evaporation, 75 μl of mineral oil (Sigma-Aldrich, St. Louis, Mo.) was added to each treated well. The microplate was then transferred to the plate reader (Model 550, Bio-Rad Laboratories, Hercules, Calif., USA) and incubated at 37° C. for 24-36 h. The kinetic reading was statistically analyzed, and the MIC and sub-MIC of each CAm compound were determined.

[5] = test system: Escherichia coli O157:H7; assay: Broth microdilution assay (MIC); format: cell-based; conditions: BHI broth, 37° C., 24 h, no visible growth
Description: (§2) From the frozen stock (−80° C.), bacteria were inoculated into brain-hear infusion (BHI) agar (Becton Dickinson, Franklin Lakes, N.J.) and propagated under aerobic conditions at 37° C. for 24 h. After the incubation, one colony of each bacterial strain was transferred to BHI broth (Becton Dickinson, Franklin Lakes, N.J.) and sub-cultured at least twice into BHI before being used in experiments.
(§3) The minimal inhibitory concentration (MIC) of CAms were identified using a broth microdilution assay modified from previous studies. Briefly, the stock solutions of CAMs were first prepared by dissolving in double-distilled water (ddH2O) and then diluted in BHI broth at pre-determined concentrations. Further serial 2-fold dilutions were performed in a 96-well microplate (Becton Dickinson, Franklin Lakes, N.J.) with BHI broth. The inoculum concentration was adjusted to 5×10^6 CFU/mL with ultraviolet-visible (UV-vis) spectroscopy at 600 nm. An equal volume (100 μL) of bacterial suspension was added to each microplate well with a final volume of 200 μL. Plates were incubated at 37° C. for 24 h under aerobic conditions. The lowest CAm concentration that yielded no visible growth was recorded as the MIC. Cetyltrimethylammonium bromide (CTAB), a cationic amphiphile, served as a positive control that could mimic the proposed bactericidal mechanism of the newly synthesized tartaric acid-based compounds.
(§4) CAms were evaluated against five selected pathogenic microorganisms, including Gram-positive bacteria (i.e., S. aureus and L. monocytogenes) and Gram-negative bacteria (i.e., E. coli, S. typhimurium, and P. aeruginosa), using a turbidity-based microdilution method. MICs were taken as the lowest concentrations that inhibited the visible bacterial growth. […] The higher MIC values for the Gram-negative bacteria could be attributed to the presence of an additional lipopolysaccharide layer, which forms a hydrophilic barrier that could prevent penetration of the highly hydrophobic CAms.

[6] = test system: Listeria monocytogenes Scott A; assay: Broth microdilution assay (MIC); format: cell-based; conditions: BHI broth, 37° C., 24 h, no visible growth
Description: as §2, §3, §4

[7] = test system: Pseudomonas aeruginosa ATCC 15442; assay: Broth microdilution assay (MIC); format: cell-based; conditions: BHI broth, 37° C., 24 h, no visible growth
Description: as §2, §3, §4

[8] = test system: Staphylococcus aureus ATCC 13565; assay: Broth microdilution assay (MIC); format: cell-based; conditions: BHI broth, 37° C., 24 h, no visible growth
Description: as §2, §3, §4

[9] = test system: Salmonella enterica serovar typhimurium; assay: Broth microdilution assay (MIC); format: cell-based; conditions: BHI broth, 37° C., 24 h, no visible growth
Description: as §2, §3
CAms were evaluated against five selected pathogenic microorganisms, including Gram-positive bacteria (i.e., S. aureus and L. monocytogenes) and Gram-negative bacteria (i.e., E. coli, S. typhimurium, and P. aeruginosa), using a turbidity-based microdilution method. MICs were taken as the lowest concentrations that inhibited the visible bacterial growth.

[10] = test system: Gram-positive and Gram-negative bacteria; assay: Broth microdilution assay, whole panel; format: cell-based; conditions: 250 μg/mL
Description: as §2
as §3, with “Plates were incubated at 37° C. for 24 h under aerobic conditions.” left out, “Cetyltrimethylammonium bromide (CTAB), a cationic amphiphile, served as a positive control that could mimic the proposed bactericidal mechanism of the newly synthesized tartaric acid-based compounds.” left out
CAms were evaluated against five selected pathogenic microorganisms, including Gram-positive bacteria (i.e., S. aureus and L. monocytogenes) and Gram-negative bacteria (i.e., E. coli, S. typhimurium, and P. aeruginosa), using a turbidity-based microdilution method. […]

Structure (SMILES)	MBC ([1]; Gardnerella vaginalis, pre-formed biofilm)	MBC-B, biofilm-associated G. vaginalis [1]	metronidazole's MIC in combination with the tested CAms [2]	MIC ([2]; Gardnerella vaginalis, read-out: MIC when used alone)	metronidazole's MIC against biofilms in combination with the tested CAms [3]	metronidazole's MIC against biofilms, metronidazole alone [3]	concentration that inhibited the growth of vaginal lactobacilli [4]	MIC E. coli (G−) [5]	MIC L. monocytogenes (G+) [6]	MIC P. aeruginosa (G−) [7]	MIC S. aureus (G+) [8]	MIC S. typhimurium (G−) [9]	antimicrobial activity at the highest concentration tested [10]
CCC[C@@H]1C[C@@H](C(=O)N[C@@H]([C@H]2O[C@H](SC)[C@H](O)[C@@H](O)[C@H]2O)[C@H](C)Cl)N(C)C1 [clindamycin, reference compound]	20000 µg/mL (≈ 47.1 mM)												
Cc1ncc([N+](=O)[O-])n1CCO [metronidazole, reference compound]		500 µg/mL (≈ 2.92 mM)	4.7 µM	37.4 µM	11.1 µM	40.4 µM	> 1168.5 µM						
CCCCCCCCCCCCOC(C(=O)NCCN)C(OCCCCCCCCCCCC)C(=O)NCCN.Cl.Cl (stereo not shown) [5c]								>250 µg/mL	125 µg/mL	>250 µg/mL	3.9 µg/mL	>250 µg/mL	didn't show appreciable antimicrobial activity
CCCCCCCCCCCC(=O)OC(C(=O)NCCN)C(OC(=O)CCCCCCCCCCC)C(=O)NCCN.Cl.Cl (stereo not shown) [8c]								>250 µg/mL	>250 µg/mL	>250 µg/mL	15.6 µg/mL	>250 µg/mL	didn't show appreciable antimicrobial activity
